Results: patent US11952388B2, “Crystal form of tri-cycle compound and application thereof” (FUJIAN AKEYLINK BIOTECHNOLOGY CO., LTD., priority 2018, dated 2024)

Experiment: Pre-stability (solid stability) test of crystal form B, HPLC analysis
Assay type: physicochemical
Description: [table] Note: • X indicates testing items, including: XRPD, content and related substances, day 0 samples were stored at −20° C.; • ICH indicate the illumination condition that guides the placement of the samples, i.e., illumination (total illuminance=1.2×10^6 Lux·hr/near ultraviolet=200 w·hr/m^2, with the lid open). About 10 mg of the crystal form B of the compound represented by formula (I) was weighed and placed at the bottom of a 40 mL glass bottle, and spread into a thin layer. The bottleneck was wrapped with aluminum foil paper (except for illuminated samples), and some small holes were punctured on the aluminum foil paper to ensure that the samples can fully contact the ambient air. The illuminated sample was placed at the bottom of a 40 mL glass bottle, which was placed vertically in the illuminated box with the lid open; the control sample was placed at the bottom of glass vials, which was placed vertically with the lid open, and wrapped with tin foil to protect it from light. Under each condition, 2 aliquots of sample were weighed in parallel at each time point, and an additional appropriate amount of sample (not weighed) was taken for XRPD detection. The prepared samples were placed under various conditions shown in the following Table, and samples were analyzed respectively by HPLC after reaching the time points. 1.1 Preparation of Diluent and Mobile Phase • Diluent: Acetonitrile:Water (2:1) • Example: 1000 mL of acetonitrile and 500 mL of water were mixed evenly, ultrasonically degassed, and cooled to room temperature. • Mobile phase A: 0.1% trifluoroacetic acid aqueous solution • Example: 2.0 mL of trifluoroacetic acid was added to 2 L of water and mixed well, ultrasonically degassed, and cooled to room temperature. • Mobile phase B: 100% acetonitrile The crystal form B of compound represented by formula (I) was used as control. The crystal form B of compound represented by formula (I) was placed in a glass bottle, then 5 mL of diluent was added into the bottle to a concentration of 1 mg/mL, and the solution was mix well ultrasonically. And then the mixture was diluted 5 times to obtain the control sample solution STD1. STD1 was diluted 1, 2, 4, 20 and 200 times to prepare a 1% control solution. Diluent was added to each test sample to a concentration of 10 mL, then the samples were ultrasonically dissolved. HPLC test was performed after cooling to room temperature. Meanwhile, the sample solution was diluted 5 times and mixed well, and then tested by HPLC. [table]

[1] = Illumination of Control (light-proof)

Structure (SMILES): Cc1cc2n(c1)S(=O)(=O)c1ccc(C(=O)NCC[C@H]3COCCO3)cc1NC2=O
- Assay (content of the sample) (40° C., 75% humidity, 1 month): 100.6%
- TRS (sum of impurities) (40° C., 75% humidity, 1 month): 1.20%
- impurity at relative retention time 0.87 (40° C., 75% humidity, 1 month): 0.34%
- impurity at relative retention time 1.07 (40° C., 75% humidity, 1 month): 0.07%
- impurity at relative retention time 1.12 (40° C., 75% humidity, 1 month): 0.65%
- impurity at relative retention time 1.14 (40° C., 75% humidity, 1 month): 0.13%
- Assay (content of the sample) (40° C., 75% humidity, 10 days): 100.7%
- TRS (sum of impurities) (40° C., 75% humidity, 10 days): 1.19%
- impurity at relative retention time 0.87 (40° C., 75% humidity, 10 days): 0.34%
- impurity at relative retention time 1.07 (40° C., 75% humidity, 10 days): 0.06%
- impurity at relative retention time 1.12 (40° C., 75% humidity, 10 days): 0.65%
- impurity at relative retention time 1.14 (40° C., 75% humidity, 10 days): 0.13%
- Assay (content of the sample) (60° C., 75% humidity, 1 month): 100.3%
- TRS (sum of impurities) (60° C., 75% humidity, 1 month): 1.21%
- impurity at relative retention time 0.87 (60° C., 75% humidity, 1 month): 0.35%
- impurity at relative retention time 1.07 (60° C., 75% humidity, 1 month): 0.07%
- impurity at relative retention time 1.12 (60° C., 75% humidity, 1 month): 0.65%
- impurity at relative retention time 1.14 (60° C., 75% humidity, 1 month): 0.13%
- Assay (content of the sample) (60° C., 75% humidity, 10 days): 101.4%
- TRS (sum of impurities) (60° C., 75% humidity, 10 days): 1.20%
- impurity at relative retention time 0.87 (60° C., 75% humidity, 10 days): 0.35%
- impurity at relative retention time 1.07 (60° C., 75% humidity, 10 days): 0.07%
- impurity at relative retention time 1.12 (60° C., 75% humidity, 10 days): 0.65%
- impurity at relative retention time 1.14 (60° C., 75% humidity, 10 days): 0.13%
- Assay (content of the sample) (60° C., 5 days): 100.1%
- TRS (sum of impurities) (60° C., 5 days): 1.19%
- impurity at relative retention time 0.87 (60° C., 5 days): 0.35%
- impurity at relative retention time 1.07 (60° C., 5 days): 0.07%
- impurity at relative retention time 1.12 (60° C., 5 days): 0.65%
- impurity at relative retention time 1.14 (60° C., 5 days): 0.13%
- Assay (content of the sample) (60° C., 10 days): 100.1%
- TRS (sum of impurities) (60° C., 10 days): 1.21%
- impurity at relative retention time 0.87 (60° C., 10 days): 0.36%
- impurity at relative retention time 1.07 (60° C., 10 days): 0.07%
- impurity at relative retention time 1.12 (60° C., 10 days): 0.65%
- impurity at relative retention time 1.14 (60° C., 10 days): 0.13%
- Assay (content of the sample) (92.5% humidity, 5 days): 100.0%
- TRS (sum of impurities) (92.5% humidity, 5 days): 1.21%
- impurity at relative retention time 0.87 (92.5% humidity, 5 days): 0.36%
- impurity at relative retention time 1.07 (92.5% humidity, 5 days): 0.07%
- impurity at relative retention time 1.12 (92.5% humidity, 5 days): 0.65%
- impurity at relative retention time 1.14 (92.5% humidity, 5 days): 0.13%
- Assay (content of the sample) (92.5% humidity, 10 days): 100.7%
- TRS (sum of impurities) (92.5% humidity, 10 days): 1.20%
- impurity at relative retention time 0.87 (92.5% humidity, 10 days): 0.35%
- impurity at relative retention time 1.07 (92.5% humidity, 10 days): 0.06%
- impurity at relative retention time 1.12 (92.5% humidity, 10 days): 0.65%
- impurity at relative retention time 1.14 (92.5% humidity, 10 days): 0.13%
- Assay (content of the sample) (Day 0): 100.5%
- TRS (sum of impurities) (Day 0): 1.20%
- impurity at relative retention time 0.87 (Day 0): 0.35%
- impurity at relative retention time 1.07 (Day 0): 0.06%
- impurity at relative retention time 1.12 (Day 0): 0.65%
- impurity at relative retention time 1.14 (Day 0): 0.14%
- Assay (content of the sample) (Illumination (1 ICH, lid open)): 83.5%
- TRS (sum of impurities) (Illumination (1 ICH, lid open)): 9.50%
- impurity at relative retention time 0.16 (Illumination (1 ICH, lid open)): 0.07%
- impurity at relative retention time 0.19 (Illumination (1 ICH, lid open)): 0.32%
- impurity at relative retention time 0.24 (Illumination (1 ICH, lid open)): 0.12%
- impurity at relative retention time 0.26 (Illumination (1 ICH, lid open)): 0.12%
- impurity at relative retention time 0.31 (Illumination (1 ICH, lid open)): 0.12%
- impurity at relative retention time 0.36 (Illumination (1 ICH, lid open)): 0.19%
- impurity at relative retention time 0.38 (Illumination (1 ICH, lid open)): 0.08%
- impurity at relative retention time 0.60 (Illumination (1 ICH, lid open)): 0.28%
- impurity at relative retention time 0.62 (Illumination (1 ICH, lid open)): 0.12%
- impurity at relative retention time 0.70 (Illumination (1 ICH, lid open)): 0.10%
- impurity at relative retention time 0.78 (Illumination (1 ICH, lid open)): 0.16%
- impurity at relative retention time 0.79 (Illumination (1 ICH, lid open)): 0.24%
- impurity at relative retention time 0.82 (Illumination (1 ICH, lid open)): 2.26%
- impurity at relative retention time 0.87 (Illumination (1 ICH, lid open)): 4.49%
- impurity at relative retention time 0.89 (Illumination (1 ICH, lid open)): 0.07%
- impurity at relative retention time 0.90 (Illumination (1 ICH, lid open)): 0.07%
- impurity at relative retention time 1.07 (Illumination (1 ICH, lid open)): <0.05%
- impurity at relative retention time 1.12 (Illumination (1 ICH, lid open)): 0.52%
- impurity at relative retention time 1.14 (Illumination (1 ICH, lid open)): 0.12%
- impurity at relative retention time 1.42 (Illumination (1 ICH, lid open)): 0.06%
- Assay (content of the sample) [1]: 100.3%
- TRS (sum of impurities) [1]: 1.18%
- impurity at relative retention time 0.87 [1]: 0.34%
- impurity at relative retention time 1.07 [1]: 0.07%
- impurity at relative retention time 1.12 [1]: 0.64%
- impurity at relative retention time 1.14 [1]: 0.13%
- solid stability (conclusion in words) (high temperature and high humidity conditions): stable under high temperature and high humidity conditions
